Assay results taken from article PMC3942743 (Toxins, 2014).
Where a name gives a salt, the structure may show the parent alone.

Target: uremic plasma (Homo sapiens, UniProt P02768)
Assay: Binding capacity of uremic plasma for IS at different NaCl concentrations
Format: in vitro ADME
Experimental: After having received approval from the competent institutional review board (ethics committee of the University Hospital Würzburg, code AZ 64/12), written informed consent was obtained from 15 end-stage renal disease patients on maintenance hemodialysis in a single dialysis center (Dialysis center, Elsenfeld, Germany). Blood (7.5 mL) was collected in EDTA-tubes from each patient before dialysis.

Sequence of uremic plasma (P02768 25-609): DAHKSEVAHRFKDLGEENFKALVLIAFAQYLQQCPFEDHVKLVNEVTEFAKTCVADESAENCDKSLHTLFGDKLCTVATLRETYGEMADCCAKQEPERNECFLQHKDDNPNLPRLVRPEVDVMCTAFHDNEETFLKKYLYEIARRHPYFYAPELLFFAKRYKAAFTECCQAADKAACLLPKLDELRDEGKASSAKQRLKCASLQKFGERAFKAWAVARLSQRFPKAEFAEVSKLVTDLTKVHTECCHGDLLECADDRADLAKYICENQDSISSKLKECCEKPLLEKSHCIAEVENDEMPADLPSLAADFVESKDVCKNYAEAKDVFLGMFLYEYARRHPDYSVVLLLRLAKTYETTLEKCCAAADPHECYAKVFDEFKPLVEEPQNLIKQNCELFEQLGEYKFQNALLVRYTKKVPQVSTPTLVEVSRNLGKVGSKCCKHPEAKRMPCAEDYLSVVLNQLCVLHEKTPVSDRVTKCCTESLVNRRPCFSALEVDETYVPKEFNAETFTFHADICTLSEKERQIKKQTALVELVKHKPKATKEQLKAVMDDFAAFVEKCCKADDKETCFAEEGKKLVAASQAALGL

Cc1ccc(OS(=O)(=O)O)cc1 [p-cresyl sulfate]
protein bound fraction ([…] NaCl, uremic plasma 1:2 diluted, native toxin): 91% ± 2% | total (native) toxin concentration in uremic plasma (plasma of hemodialysis patients before dialysis): 90 ± 28 µM
